Data set [1] is described as follows: Hygroscopicity / water adsorption of crystal forms. Type of data set: physicochemical. The note with it: dihydrochloride.
The nature of data set [2]: Physical stability of crystal forms (temperature, humidity, phase equilibration). Type of data set: physicochemical.
Another data set has as its system infants with PPHN. The conditions noted are these: cited from earlier work.

The values below come from patent US20100130500A1, “METHODS AND COMPOSITIONS FOR THE TREATMENT OF PULMONARY HYPERTENSION OF THE NEWBORN” (BIOMARIN PHARMACEUTICAL INC., priority 2004, published 2010).

`C[C@H](O)[C@H](O)[C@H]1CNc2nc(N)[nH]c(=O)c2N1.Cl.Cl` [Polymorph A, (6R)-L-erythro-tetrahydrobiopterin dihydrochloride]: in data set [1], the “adsorbs water to a content of” value is “about 3 percent by weight”. Further, the “phase equilibration tests of suspensions” value in data set [2] (tetrahydrofuran or tertiary-butyl methyl ether, stirred five days and 18 hours respectively, nitrogen, room temperature, filtration and air-drying) was “unchanged polymorph form A”.
Consider `C[C@H](O)[C@H](O)[C@H]1CNc2nc(N)[nH]c(=O)c2N1.Cl.Cl` [Polymorph B, (6R)-L-erythro-tetrahydrobiopterin dihydrochloride], for which, in data set [2] (dihydrochloride), the “stability of the crystal form” value is “highest thermodynamic stability above about 20 °C”.
On to `C[C@H](O)[C@H](O)[C@H]1CNc2nc(N)[nH]c(=O)c2N1.Cl.Cl` [Polymorph F, (6R)-L-erythro-tetrahydrobiopterin dihydrochloride], for which the “adsorbs water to a content of” value in data set [1] was “about 3 percent by weight”.
On the same count and under the same terms, under `C[C@H](O)[C@H](O)[C@H]1CNc2nc(N)[nH]c(=O)c2N1.Cl.Cl` [Polymorph K, (6R)-L-erythro-tetrahydrobiopterin dihydrochloride] stands “about 2.0 percent by weight”.
Take `Nc1ncnc2c1ncn2[C@@H]1O[C@H](COP(=O)(O)OP(=O)(O)OP(=O)(O)O)[C@@H](O)[C@H]1O` [adenosine triphosphate]: in the data set with infants with PPHN, the “infants with a response” value is 5 out of 6.
For `C[C@H](O)[C@H](O)[C@H]1CNc2nc(N)[nH]c(=O)c2N1.Cl.Cl` [hydrate form D, (6R)-L-erythro-tetrahydrobiopterin dihydrochloride], in data set [2] (ambient temperatures, dihydrochloride), the “relative humidity at which the form is stable” value is recorded as “less than 70%”.
On to `C[C@H](O)[C@H](O)[C@H]1CNc2nc(N)[nH]c(=O)c2N1.Cl.Cl` [polymorph J, (6R)-L-erythro-tetrahydrobiopterin dihydrochloride], for which the “relative humidity at which it is transformed back into form E” value in data set [2] is listed as “above 75%”.
In the case of `c1ccc(CC2=NCCN2)cc1` [tolazoline], in the data set with infants with PPHN, the response rate is reported as 60%.
